Reference: US20250287945A1, “COMPOSITIONS FOR FUNGAL CONTROL AND RELATED METHODS” (priority 2021, published 2025)

Assays:
[1] = tested on: Nicotiana benthamiana leaves; assay: Phytotoxicity at the treatment site on detached leaves; format: in vivo; conditions: 275 micromolar in 50% ethanol, 100 microliters on leaf quadrant
[2] = tested on: Fusarium conidial suspension; assay: Fusarium viability colorimetric assay (PrestoBlue resazurin); format: cell-based; conditions: four replicates, protocol and peptides as third experiment (175 and 375 micromolar), concentration not given
Description: A Fusarium conidial suspension was prepared from a 7-day culture of Fusarium biomass grown on potato dextrose agar for 7 days, and quantified by hemocytometer, as described in Example 4. Solutions of fenpiclonil (Millipore Sigma, Cat. no. 36532) and of the individual peptides were prepared in 50% (w/v) ethanol in water, and tested using a PrestoBlue™ (resazurin) viability colorimetric assay as described in Example 4.
The Fusarium conidial suspension, peptide or control treatment solution, and potato dextrose broth (Alpha Biosciences, catalogue no. P16-126) were added to each well of a 96-well plate to obtain the desired treatment concentration and 1×10^6 conidia/mL in a final volume of 150 microliters per well. The plates were covered and incubated at 30° C. for 18 hours and 200 rpm. Fifteen microliters of PrestoBlue™ Cell Viability Reagent (Thermofisher Scientific, Cat no. A13262) were added to each well, and the plate was further incubated before measuring fluorescence at 590 nm emission with excitation at 560 nm using a spectrophotometer (BioTek Synergy H1 Microplate Reader, Fischer Scientific, Cat. no. 11-120-533).

[3] = tested on: Botrytis cinarea (strain CBS 261.71); assay: Botrytis viability colorimetric assay (PrestoBlue resazurin); format: cell-based, Botrytis cinerea; conditions: Botrytis, CBS261; 375 micromolar; four replicates; read-out: Percent Inhibition (Botrytis), Mean
Fusarium culmorum = format: cell-based
Phytophthora infestans = format: cell-based; conditions: 7 days incubation; modified RPMI medium, 25 degrees Celsius; concentration not given
Fusarium graminearum = format: cell-based; conditions: 22 hours incubation; modified RPMI medium, 25 degrees Celsius; concentration not given
Zymoseptoria tritici = format: cell-based

Row | Molecule | phytotoxicity (tissue necrosis at the treatment site) [1] | Percent Inhibition (Fusarium), Experiment 4, Mean ([2]; Experiment 4) [%] | Percent Inhibition (Fusarium), Experiment 5, Mean ([2]; Experiment 5) [%] | inhibition at 375 µM [3] [%] | inhibition relative to a control (Fusarium culmorum) [%] | inhibition relative to a control (Phytophthora infestans) [%] | inhibition relative to a control (Fusarium graminearum) [%] | inhibition relative to a control (Zymoseptoria tritici) [%]
1 | N#Cc1c[nH]cc1-c1cccc(Cl)c1Cl [Fenpiclonil, 4-(2,3-dichlorophenyl)-1H-pyrrole-3-carbonitrile, reference compound] | phytotoxic | 82.25 | 79.19 | 75.8 | – | – | – | –
2 | WHWLQLKPGQPMYRRRRRRRR [SEQ ID NO: 2240] | – | – | – | – | ≥ 50 | ≥ 50 | ≥ 50 | ≥ 50
